Data as given in publication PMC9848300, “Discovery of novel enasidenib analogues targeting inhibition of mutant isocitrate dehydrogenase 2 as antileukaemic agents” (Journal of Enzyme Inhibition and Medicinal Chemistry, 2023).

Legend:
Format in all cases: cell-based
SR = test: NCI 60 antitumor screening (single dose / five doses); conditions: Homo sapiens; SR (leukaemia), single dose 10 μM; read-out: Growth inhibition percentage (GI %)
HOP-92 = test: as above; conditions: Homo sapiens; HOP-92 (non-small cell lung cancer), single dose 10 μM; read-out: Growth inhibition percentage (GI %)
A549/ATCC = test: NCI 60 antitumor screening (single dose); conditions: Homo sapiens; A549/ATCC (non-small cell lung cancer), single dose 10 μM; read-out: Growth inhibition percentage (GI %)
Procedure, shortened: (§1)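 Test compound added at 10 μM to each of 60 human cancer lines from nine tumour types; growth measured per NCI protocol in triplicate; percent growth converted to inhibition (100 − G%).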

CAKI-1 = test: NCI 60 antitumor screening (single dose); conditions: Homo sapiens; CAKI-1 (renal cancer), single dose 10 μM; read-out: Growth inhibition percentage (GI %)
Procedure, shortened: as §1

HCC-2998 = test: NCI 60 antitumor screening (single dose); conditions: Homo sapiens; HCC-2998 (colon cancer), single dose 10 μM; read-out: Growth inhibition percentage (GI %)
Procedure, shortened: (§2)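 Read-out is percent growth (G%) of treated cancer cells relative to untreated, converted to percent inhibition as 100 − G%. Each compound was applied once at 10 μM across 60 human tumour lines under the NCI protocol.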

HOP-62 = test: NCI 60 antitumor screening (single dose); conditions: Homo sapiens; HOP-62 (non-small cell lung cancer), single dose 10 μM; read-out: Growth inhibition percentage (GI %)
Procedure, shortened: as §2

HS 578T = test: NCI 60 antitumor screening (single dose); conditions: Homo sapiens; HS 578T (breast cancer), single dose 10 μM; read-out: Growth inhibition percentage (GI %)
Procedure, shortened: as §1

KM 12 = test: NCI 60 antitumor screening (single dose); conditions: Homo sapiens, KM12; KM 12 (colon cancer), single dose 10 μM; read-out: Growth inhibition percentage (GI %)
Procedure, shortened: as §1

M14 = test: NCI 60 antitumor screening (single dose); conditions: Homo sapiens; M14 (melanoma), single dose 10 μM; read-out: Growth inhibition percentage (GI %)
Procedure, shortened: as §1

MCF7 = test: NCI 60 antitumor screening (single dose); conditions: Homo sapiens; MCF7 (breast cancer), single dose 10 μM; read-out: Growth inhibition percentage (GI %)
Procedure, shortened: as §1

NCI-H226 = test: NCI 60 antitumor screening (single dose); conditions: Homo sapiens; NCI-H226 (non-small cell lung cancer), single dose 10 μM; read-out: Growth inhibition percentage (GI %)
Procedure, shortened: as §1

NCI-H23 = test: NCI 60 antitumor screening (single dose); conditions: Homo sapiens; NCI-H23 (non-small cell lung cancer), single dose 10 μM; read-out: Growth inhibition percentage (GI %)
Procedure, shortened: as §2

NCI-H322M = test: NCI 60 antitumor screening (single dose); conditions: Homo sapiens; NCI-H322M (non-small cell lung cancer), single dose 10 μM; read-out: Growth inhibition percentage (GI %)
Procedure, shortened: as §1

NCI-H460 = test: NCI 60 antitumor screening (single dose); conditions: Homo sapiens; NCI-H460 (non-small cell lung cancer), single dose 10 μM; read-out: Growth inhibition percentage (GI %)
Procedure, shortened: as §2

NCI-H522 = test: NCI 60 antitumor screening (single dose); conditions: Homo sapiens; NCI-H522 (non-small cell lung cancer), single dose 10 μM; read-out: Growth inhibition percentage (GI %)
Procedure, shortened: as §2

OVCAR-3 = test: NCI 60 antitumor screening (single dose); conditions: Homo sapiens; OVCAR-3 (ovarian cancer), single dose 10 μM; read-out: Growth inhibition percentage (GI %)
Procedure, shortened: as §1

OVCAR-4 = test: NCI 60 antitumor screening (single dose); conditions: Homo sapiens; OVCAR-4 (ovarian cancer), single dose 10 μM; read-out: Growth inhibition percentage (GI %)
Procedure, shortened: as §1

OVCAR-5 = test: NCI 60 antitumor screening (single dose); conditions: Homo sapiens; OVCAR-5 (ovarian cancer), single dose 10 μM; read-out: Growth inhibition percentage (GI %)
Procedure, shortened: as §2

OVCAR-8 = test: NCI 60 antitumor screening (single dose); conditions: Homo sapiens; OVCAR-8 (ovarian cancer), single dose 10 μM; read-out: Growth inhibition percentage (GI %)
Procedure, shortened: as §1

PC-3 = test: NCI 60 antitumor screening (single dose); conditions: Homo sapiens; PC-3 (prostate cancer), single dose 10 μM; read-out: Growth inhibition percentage (GI %)
Procedure, shortened: as §1

SF-268 = test: NCI 60 antitumor screening (single dose); conditions: Homo sapiens; SF-268 (CNS cancer), single dose 10 μM; read-out: Growth inhibition percentage (GI %)
Procedure, shortened: as §2

SK-OV-3 = test: NCI 60 antitumor screening (single dose); conditions: Homo sapiens; SK-OV-3 (ovarian cancer), single dose 10 μM; read-out: Growth inhibition percentage (GI %)
Procedure, shortened: as §2

SNB-19 = test: NCI 60 antitumor screening (single dose); conditions: Homo sapiens; SNB-19 (CNS cancer), single dose 10 μM; read-out: Growth inhibition percentage (GI %)
Procedure, shortened: as §1

TK-10 = test: NCI 60 antitumor screening (single dose); conditions: Homo sapiens; TK-10 (renal cancer), single dose 10 μM; read-out: Growth inhibition percentage (GI %)
Procedure, shortened: as §1

U251 = test: NCI 60 antitumor screening (single dose); conditions: Homo sapiens, U-251; U251 (CNS cancer), single dose 10 μM; read-out: Growth inhibition percentage (GI %)
Procedure, shortened: as §2

MDA-MB-435 = test: NCI 60 antitumor screening (single dose / five doses); conditions: Homo sapiens; MDA-MB-435 (melanoma), single dose 10 μM; read-out: Growth inhibition percentage (GI %)
RXF 393 = test: as above; conditions: Homo sapiens; RXF 393 (renal cancer), single dose 10 μM; read-out: Growth inhibition percentage (GI %)

O=C1Nc2ccc(Cl)cc2/C1=N\Nc1nc(N/N=C2/C(=O)Nc3ccc(Cl)cc32)nc(N2CCOCC2)n1 [compound 8b, (3E)-5-Chloro-3-[2–(4-{2-[(3E)-5-chloro-2-oxo-2,3-dihydro-1H-indol-3-ylidene]hydrazin-1-yl}6-(morpholin-4-yl)-1,3,5-triazin-2-yl)hydrazin-1-ylidene]-2,3-dihydro-1H-indol-2-one]
inhibition at 10 µM (SR): 70.8% | inhibition at 10 µM (HOP-92): 74% | inhibition at 10 µM (A549/ATCC): -1.37% | inhibition at 10 µM (CAKI-1): 28% | inhibition at 10 µM (HCC-2998): 24.5% | inhibition at 10 µM (HOP-62): 62.4% | inhibition at 10 µM (HS 578T): 108% | inhibition at 10 µM (KM 12): 18.8% | inhibition at 10 µM (M14): 22.5% | inhibition at 10 µM (MCF7): 56.9% | inhibition at 10 µM (NCI-H226): 42.7% | inhibition at 10 µM (NCI-H23): 82.8% | inhibition at 10 µM (NCI-H322M): 21.9% | inhibition at 10 µM (NCI-H460): 11.8% | inhibition at 10 µM (NCI-H522): 94.9% | inhibition at 10 µM (OVCAR-3): 47.3% | inhibition at 10 µM (OVCAR-4): 21.3% | inhibition at 10 µM (OVCAR-5): 4.93% | inhibition at 10 µM (OVCAR-8): 49.9% | inhibition at 10 µM (PC-3): 43.9% | inhibition at 10 µM (SF-268): 50.9% | inhibition at 10 µM (SK-OV-3): 44.5% | inhibition at 10 µM (SNB-19): 109% | inhibition at 10 µM (TK-10): -18.5% | inhibition at 10 µM (U251): 96.2% | inhibition at 10 µM (MDA-MB-435): 36.5% | inhibition at 10 µM (RXF 393): 86.3%

O=C(NNc1nc(NNC(=O)c2ccccc2)nc(N2CCOCC2)n1)c1ccccc1 [compound 8d, N'-[4-(morpholin-4-yl)-6-(phenylhydrazido)-1,3,5-triazin-2-yl]benzohydrazide]
inhibition at 10 µM (SR): 2.07% | inhibition at 10 µM (HOP-92): -12.8% | inhibition at 10 µM (A549/ATCC): 1.66% | inhibition at 10 µM (CAKI-1): 3.15% | inhibition at 10 µM (HCC-2998): -5.88% | inhibition at 10 µM (HOP-62): -11.8% | inhibition at 10 µM (HS 578T): -6.14% | inhibition at 10 µM (KM 12): -5.4% | inhibition at 10 µM (M14): -0.8% | inhibition at 10 µM (MCF7): 0.71% | inhibition at 10 µM (NCI-H226): 4.42% | inhibition at 10 µM (NCI-H23): 5.69% | inhibition at 10 µM (NCI-H322M): 4.42% | inhibition at 10 µM (NCI-H460): -1.86% | inhibition at 10 µM (NCI-H522): -2.83% | inhibition at 10 µM (OVCAR-3): -5.45% | inhibition at 10 µM (OVCAR-4): -10.6% | inhibition at 10 µM (OVCAR-5): -4.08% | inhibition at 10 µM (OVCAR-8): 3.15% | inhibition at 10 µM (PC-3): -7.68% | inhibition at 10 µM (SF-268): -1.5% | inhibition at 10 µM (SK-OV-3): -18.5% | inhibition at 10 µM (SNB-19): 3.32% | inhibition at 10 µM (TK-10): -10.8% | inhibition at 10 µM (U251): -0.3% | inhibition at 10 µM (MDA-MB-435): -2.63% | inhibition at 10 µM (RXF 393): 0.99%
